US6392045B1, “9-azobicyclo[3.3.1] non-2-ene derivatives as cholinergic ligands at nicotinic ACH receptors” (NeuroSearch A/S, priority 1997, dated 2002)
Counter-ions that a name gives are not always drawn. Like-named read-outs stand apart in the source and are kept apart here.

What was measured:
[1] = target: nAChR formed by the α7 subunit isoform (Rattus norvegicus, UniProt Q05941); assay: biochemical; type: binding
[2] = target: T1, α4β2 subtype of nicotinic receptors (neuronal nicotinic receptors) (Rattus norvegicus, UniProt P09483+P12390); assay: In vitro inhibition of 3H-epibatidin binding
T1 construct: The forebrain (÷cerebellum) from a male Wistar rat (150-250 g) is homogenized; from tissue; host or cells: rat forebrain (without cerebellum) homogenate (male Wistar)
Experimental: In Vitro Inhibition of ^3H-epibatidin Binding
The high affinity binding site for ^3H-epibatidin is most certainly binding to the α4β2 subtype of nicotinic receptors. The identity of the low affinity site is still unknown; does it represent a second nicotinic receptor or a second site in the same receptor.
Tissue preparation: Preparations are performed at 0-4° C. unless otherwise indicated. The forebrain (÷cerebellum) from a male Wistar rat (150-250 g) is homogenized for 10-20 sec in 20 ml Tris, HCl (50 mM, pH 7.4) using an Ultra-Turrax homogenizer. The tissue suspension is centrifuged at 27,000×g for 10 min. The supernatant is discarded and the pellet is washed three times by centrifugation at 27,000×g for 10 min in 20 ml fresh buffer, and the final pellet is resuspended in fresh buffer (400 ml per g of original tissue) and used for binding assays.
Assay: Aliquots of 2.0 ml homogenate are added to 0.100 ml of test solution and 0.100 ml of ^3H-epibatidin (0.3 nM, final concentration), mixed and incubated for 60 min at room temperature. Non-specific binding is determined using (−)-nicotine (30 μM, final concentration). After incubation the samples are poured directly onto Whatman GF/C glass fibre filters (presoaked in 0.1% PEI for at least 20 min) under suction and immediately washed with 2×5 ml ice-cold buffer. The amount of radioactivity on the filters is determined by conventional liquid scintillation counting. Specific binding is total binding minus non-specific binding.

[3] = target: nAChRs comprised of α4 and β2 subunits (Rattus norvegicus, UniProt P09483+P12390); assay: In vitro inhibition of 3H-cytisine binding
Experimental: In Vitro Inhibition of ^3H-cytisine Binding
The predominant subtype with high affinity for nicotine is comprised of α4 and β2 subunits. nAChRs of the latter type can selectively be labelled by the nicotine agonist ^3H-cytisine.
Tissue Preparation: Preparations are performed at 0-4° C. unless otherwise indicated. […] The homogenate is centrifuged at 27,000×g for 10 min. The supernatant is discarded and the pellet is resuspended in fresh buffer and centrifuged a second time. The final pellet is resuspended in fresh buffer (35 ml per g of original tissue) and used for binding assays.
Assay: Aliquots of 500 μl homogenate are added to 25 μl of test solution and 25 μl of ^3H-cytisine (1 nM, final concentration), mixed and incubated for 90 min at 2° C. Non-specific binding is determined using (−)-nicotine (100 μM, final concentration). After incubation the samples are added 5 ml of ice-cold buffer and poured directly onto Whatman GF/C glass fibre filters under suction and immediately washed with 2×5 ml ice-cold buffer. The amount of radioactivity on the filters is determined by conventional liquid scintillation counting. Specific binding is total binding minus non-specific binding.

[4] = read-out: 3H-α-bungarotoxin IC50
[5] = rat cerebral cortex homogenate, 1 nM 3H-cytisine, 90 min at 2° C., read-out: 3H-cytisine IC50

Sequence of nAChR formed by the α7 subunit isoform (Q05941 23-502): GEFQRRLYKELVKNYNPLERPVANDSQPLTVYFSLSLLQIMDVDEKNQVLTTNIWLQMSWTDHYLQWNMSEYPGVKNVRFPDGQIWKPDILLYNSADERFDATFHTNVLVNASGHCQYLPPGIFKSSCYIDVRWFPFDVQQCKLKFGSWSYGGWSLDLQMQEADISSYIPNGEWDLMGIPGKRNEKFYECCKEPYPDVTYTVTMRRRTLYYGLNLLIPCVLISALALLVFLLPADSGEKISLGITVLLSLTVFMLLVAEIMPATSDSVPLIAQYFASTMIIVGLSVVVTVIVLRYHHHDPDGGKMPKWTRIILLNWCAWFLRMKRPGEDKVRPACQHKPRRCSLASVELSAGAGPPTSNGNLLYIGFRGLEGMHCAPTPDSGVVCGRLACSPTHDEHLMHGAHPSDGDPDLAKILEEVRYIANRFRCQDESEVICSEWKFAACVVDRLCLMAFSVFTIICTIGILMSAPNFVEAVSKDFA
Sequence of nAChRs comprised of α4 and β2 subunits (P09483 31-630): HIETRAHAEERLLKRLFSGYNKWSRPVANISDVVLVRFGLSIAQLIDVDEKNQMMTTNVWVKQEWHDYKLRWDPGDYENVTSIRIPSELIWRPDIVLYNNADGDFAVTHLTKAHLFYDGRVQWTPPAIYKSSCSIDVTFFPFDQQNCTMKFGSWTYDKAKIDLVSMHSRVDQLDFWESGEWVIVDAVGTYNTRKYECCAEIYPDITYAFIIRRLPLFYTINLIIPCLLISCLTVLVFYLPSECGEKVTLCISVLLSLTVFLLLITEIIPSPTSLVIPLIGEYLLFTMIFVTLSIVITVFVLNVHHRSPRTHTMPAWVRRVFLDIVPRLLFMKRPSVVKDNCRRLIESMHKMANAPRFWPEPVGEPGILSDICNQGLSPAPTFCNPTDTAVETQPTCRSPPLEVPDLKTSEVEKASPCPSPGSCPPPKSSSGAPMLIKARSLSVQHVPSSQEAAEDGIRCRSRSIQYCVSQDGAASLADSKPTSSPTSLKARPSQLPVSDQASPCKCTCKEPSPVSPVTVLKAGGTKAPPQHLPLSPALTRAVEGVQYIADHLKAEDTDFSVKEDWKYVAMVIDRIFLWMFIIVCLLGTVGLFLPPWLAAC
Sequence of nAChRs comprised of α4 and β2 subunits (P12390 25-500): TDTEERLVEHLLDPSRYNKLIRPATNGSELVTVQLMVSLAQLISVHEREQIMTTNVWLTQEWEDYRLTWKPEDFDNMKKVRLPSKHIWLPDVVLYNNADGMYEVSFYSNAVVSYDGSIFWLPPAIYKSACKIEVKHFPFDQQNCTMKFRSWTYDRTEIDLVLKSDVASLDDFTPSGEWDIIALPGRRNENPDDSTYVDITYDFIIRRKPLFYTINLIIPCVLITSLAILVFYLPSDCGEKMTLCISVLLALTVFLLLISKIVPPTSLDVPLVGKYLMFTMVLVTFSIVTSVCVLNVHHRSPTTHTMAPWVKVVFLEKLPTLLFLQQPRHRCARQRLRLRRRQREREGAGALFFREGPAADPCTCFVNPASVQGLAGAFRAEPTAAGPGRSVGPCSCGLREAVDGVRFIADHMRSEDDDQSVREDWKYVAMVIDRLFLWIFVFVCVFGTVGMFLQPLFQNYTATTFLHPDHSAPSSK
T1 sequence (P09483 31-630): as the sequence (P09483 31-630) above
T1 sequence (P12390 25-500): as the sequence (P12390 25-500) above

SMILES | melting point [°C] | IC50 [1, 4] [nM] | IC50 [2] [nM] | IC50 [3] [nM] | IC50 [1] [nM] | IC50 [3, 5] [nM] | IC50 ([2]; rat forebrain homogenate, 0.3 nM 3H-epibatidin, 60 min at room temperature, read-out: 3H-epibatidin IC50) [nM]
COc1cncc(C2=CC3CCCC(C2)N3C)c1 (racemic) (as salt: fumaric acid salt) [Compound 2a, (±)-3-[3-(5-Methoxy)-pyridyl]-9-methyl-9-azabicyclo[3.3.1]non-2-ene Fumaric Acid Salt] | 125 to 126.5 | – | – | – | – | – | –
CN1C2C=C(c3nc4ccccc4s3)CC1CCC2.O=C(O)/C=C/C(=O)O (racemic) | 176 to 177 | – | – | – | – | – | –
CN1C2C=C(c3cncc(-c4ccc(Oc5ccccc5)cc4)c3)CC1CCC2.O=C(O)/C=C/C(=O)O (racemic) [Compound 4b, (±)-3-[5-(4-Phenoxyphenyl)-3-pyridyl]-9-methyl-9-azabicyclo[3.3.1]non-2-ene Fumaric Acid Salt] | 166 to 168 | 17000 | 690 | 350 | – | – | –
CN1C2C=C(c3cccnc3)CC1CCC2.O=C(O)/C=C/C(=O)O (racemic) [Compound 1a, (±)-9-Methyl-3-(3-pyridyl)-9-azabicyclo[3.3.1]non-2-ene Fumaric Acid Salt] | 164.5 to 166.5 | 500 | 84 | 23 | – | – | –
CC(=O)Nc1cccc(C2=CC3CCCC(C2)N3C)c1.CC(=O)O (racemic) [Compound 2c, (±)-3-(3-Acetamidophenyl)-9-methyl-9-azabicyclo[3.3.1]non-2-ene Acetic Acid Salt] | 59.9 to 63.4 | 1700 | 290000 | 85000 | – | – | –
CN1C2C=C(c3cccc4ncccc34)CC1CCC2 (racemic) | 142 to 144 | – | – | – | – | – | –
C1=C(c2cccnc2)CC2CCCC1N2 (racemic) (as salt: fumaric acid salt) [Compound 11c, (±)-9-H-3-(3-Pyridyl)-9-azabicyclo[3.3.1]oct-2-ene Fumaric Acid Salt] | 188.5 to 190 | – | – | – | – | – | –
CN1C2C=C(c3ccc4ccccc4c3)CC1CCC2 (racemic) [Compound 8c, (±)-3-(2-Naphtyl)-9-methyl-9-azabicyclo[3.3.1]non-2-ene Oxalic Acid Salt] | – | – | > 300000 | – | 370 | > 300000 | –
COc1cncc(C2=CC3CCCC(C2)N3C)c1 (racemic) [Compound 2a, (±)-3-[3-(5-Methoxy)-pyridyl]-9-methyl-9-azabicyclo[3.3.1]non-2-ene Fumaric Acid Salt] | – | 2000 | 76 | 17 | – | – | –
CN1C2C=C(c3cncc(-c4ccccc4)c3)CC1CCC2 (racemic) (as salt: fumaric acid salt) [Compound 3a, (±)-9-Methyl-3-[3-(5-phenyl)-pyridyl]-9-azabicyclo[3.3.1]non-2-ene Fumaric Acid Salt] | 147.5 to 149.5 | – | – | – | – | – | –
COc1ccc(C2=CC3CCCC(C2)N3C)cn1 (racemic) [Compound 5b, (±)-3-[3-(6-Methoxy)-pyridyl)]-9-methyl-9-azabicyclo[3.3.1]non-2-ene Fumaric Acid Salt] | – | 2300 | 17000 | 2000 | – | – | –
CCN1C2C=C(c3cccnc3)CC1CCC2.O=C(O)/C=C/C(=O)O (racemic) [Compound 6a, (±)-9-Ethyl-3-(3-pyridyl)-9-azabicyclo[3.3.1]non-2-ene Fumaric Acid Salt] | 193 to 195 | 5800 | 1700 | 1800 | – | – | –
C1=C(c2cccnc2)CC2CCCC1N2Cc1ccccc1.O=C(O)/C=C/C(=O)O (racemic) | 186 to 187 | – | – | – | – | – | –
CN1C2C=C(c3cncc(-c4ccccc4)c3)CC1CCC2 (racemic) [Compound 3a, (±)-9-Methyl-3-[3-(5-phenyl)-pyridyl]-9-azabicyclo[3.3.1]non-2-ene Fumaric Acid Salt] | – | 4100 | 150 | 25 | – | – | –
CN1C2C=C(c3cccc(N4CCCC4)c3)CC1CCC2 (racemic) [Compound 3c, (±)-3-[3-(1-Pyrrolidinyl)-phenyl]-9-methyl-9-azabicyclo[3.3.1]non-2-ene] | – | – | > 10000 | – | 18000 | > 10000 | –
CN1C2C=C(c3cncc(-c4cccnc4)c3)CC1CCC2.O=C(O)/C=C/C(=O)O (racemic) [Compound 2b, (±)-9-Methyl-3-[5-(3-pyridyl)-3-pyridyl]-9-azabicyclo[3.3.1]non-2-ene Fumaric Acid Salt] | 206 to 208 | 17000 | 240 | 13 | – | – | –
CN1C2C=C(c3cncnc3)CC1CCC2.O=C(O)/C=C/C(=O)O (racemic) [Compound 1b, (±)-9-Methyl-3-(5-pyrimidyl)-9-azabicyclo[3.3.1]non-2-ene Fumaric Acid Salt] | 198 to 202 | 1600 | 52 | 78 | – | – | –
CN1[C@@H]2CCC[C@H]1C[C@H](c1cccnc1)C2 [Compound 8a, Exo-9-Methyl-3-(3-pyridyl)-9-azabicyclo[3.3.1]nonane] | 69 to 70 | 1400 | 110 | 18 | – | – | –
CN1C2C=C(c3cccc(N)c3)CC1CCC2.O=C(O)/C=C/C(=O)O (racemic) [Compound 1c, (±)-3-(3-Aminophenyl)-9-methyl-9-azabicyclo[3.3.1]non-2-ene Fumaric Acid Salt] | 174 to 180 | – | – | – | 220 | 40 | 180
CN1C2C=C(c3cc4ccccc4o3)CC1CCC2 (racemic) [Compound 4a, (±)-3-(2-Benzofuryl)-9-methyl-9-azabicyclo[3.1]non-2-ene Fumaric Acid Salt] | – | – | > 300000 | – | 190 | > 300000 | –
CN1C2C=C(c3cccn3C)CC1CCC2 (racemic) [Compound 1d, (±)-3-[2-(1-Methyl-pyrrolyl)]-9-methyl-9-azabicyclo[3.3.1]non-2-ene] | – | 1900 | – | 1800 | – | – | –
CN1C2C=C(c3cccc([N+](=O)[O-])c3)CC1CCC2.O=C(O)/C=C/C(=O)O (racemic) [Compound 5c, (±)-9-Methyl-3-(3-nitrophenyl)-9-azabicyclo[3.3.1]non-2-ene Fumaric Acid Salt] | 133 to 144 | 2200 | 3900 | 2700 | – | – | –
CN1C2C=C(c3ccc4ccccc4c3)CC1CCC2 (racemic) (as salt: oxalic acid salt) [Compound 8c, (±)-3-(2-Naphtyl)-9-methyl-9-azabicyclo[3.3.1]non-2-ene Oxalic Acid Salt] | 87.9 to 92.2 | – | – | – | – | – | –
CN1C2C=C(c3ccc4c(c3)OCO4)CC1CCC2.O=C(O)/C=C/C(=O)O (racemic) | 159 to 163 | – | – | – | – | – | –
C1=C(c2cccnc2)CC2CCCC1N2 (racemic) [Compound 11c, (±)-9-H-3-(3-Pyridyl)-9-azabicyclo[3.3.1]oct-2-ene Fumaric Acid Salt] | – | 170 | 46 | – | – | 4.5 | –
CN1C2C=C(c3cc4ccccc4s3)CC1CCC2 (racemic) [Compound 7a, (±)-3-(2-Benzothienyl)-9-methyl-9-azabicyclo[3.3.1]non-2-ene] | – | – | 280000 | – | 160 | 280000 | –
COc1cncc(C2=CC3CCCC(C2)N3)c1 (racemic) [Compound 3d, (±)-9-H-3-(3-(5-methoxy)-pyridyl)-9-azabicyclo[3.3.1]non-2-ene] | – | 17 | 18 | – | – | 3 | –
CN1C2C=C(c3cc4ccccc4o3)CC1CCC2.O=C(O)/C=C/C(=O)O (racemic) [Compound 7c, (±)-3-(2-Benzofuryl)-9-methyl-9-azabicyclo[3.3.1]non-2-ene Fumaric Acid Salt] | 184 to 186 | – | – | – | 190 | > 300000 | –
COc1ccc(C2=CC3CCCC(C2)N3C)cn1 (racemic) (as salt: fumaric acid salt) [Compound 5b, (±)-3-[3-(6-Methoxy)-pyridyl)]-9-methyl-9-azabicyclo[3.3.1]non-2-ene Fumaric Acid Salt] | 116 to 124 | – | – | – | – | – | –
